Data taken from patent publication US9181249B2, “Substituted pyrido[3,4-b]pyrazines as GPR6 modulators” (Takeda Pharmaceutical Company Limited, priority 2013, dated 2015).
Marks after values point to notes of the source that are not given here.

Key:
[1] = test system: haloperidol-induced catalepsy; experiment: Example B Haloperidol-Induced Catalepsy In Vivo Rodent Parkinson's Disease Model; conditions: Rat
Source text: Haloperidol-Induced Catalepsy In Vivo Rodent Parkinson's Disease Model
The motor symptoms of Parkinson's disease include akinesia, bradykinesia, rigidity, tremor and postural abnormalities and are associated with the loss of nigral dopaminergic cells and a decline in striatal dopamine levels. Administration of haloperidol to rodents leads to a transient parkinsonian-like state that is reversed by the administration of L-Dopa (Duty, S.; Jenner, P. Br. J. Pharmacol. (2011), 164, 1357-1391) and other drugs that have been clinically validated for the treatment of Parkinson's disease. Haloperidol antagonizes dopamine D2 and, to a lesser extent, D1 receptors in medium spiny neurons that comprise the indirect and direct pathways of the motor circuit respectively. The resultant block of striatal dopamine transmission results in abnormal downstream firing within the basal ganglia circuits that is manifest as symptoms of muscle rigidity and catalepsy. Catalepsy has been postulated to reflect the clinical features of Parkinson's disease, whereby patients experience an inability of to initiate movements.
Male Sprague-Dawley rats (Charles River, Calco, Italy) weighing 175-200 g are used. Alternatively, male C57Bl6 mice weighing 25-35 g were used. The cataleptic state was induced by the subcutaneous administration of the dopamine receptor antagonist haloperidol (0.3 mg/kg, sc), 90 min before testing the animals on the vertical grid test. For this test, the rats or mice were placed on the wire mesh cover of a 25 cm×43 cm plexiglass cage placed at an angle of about 70 degrees with the bench table. The subject was placed on the grid with all four legs abducted and extended (“frog posture”). The use of such an unnatural posture is essential for the specificity of this test for catalepsy. The time span from placement of the paws until the first complete removal of one paw (descent latency) was measured maximally for 120 sec for rats. For mice, the front paws of a mouse was placed on a horizontal metal bar raised 2″ above a Plexiglas platform and time was recorded for up to 30 seconds per trial. The test ended when the animal's front paws returned to the platform or after 30 seconds. The test was repeated three times and the average of the three trials was reported as the intensity index of catalepsy.
Catalepsy was measured 30 min, 120 min, and/or 240 min after dosing the subjects a 0.3 mg/kg i.p. dose of haloperidol along with the GPR6 modulator test compound. Test compound plasma and brain levels were determined by collected tissue samples at the end of the experiment, which was either at the 120 or 240 min time point. A representative number of compounds of the invention were administered in a dose range from 0.1 to 100 mg/kg i.p, sc or po in conjunction with haloperidol. The A2a antagonist KW6002 (istradefylline) was dosed at 0.6 mg/kg i.p. as a positive control.

[2] = test system: 6-hydroxydopamine lesioned rats (motor activity); experiment: Example C 6-Hydroxydopamine Lesion Model In Vivo Rodent Parkinson's Disease Model; conditions: adult female rats, bilateral striatal 6-hydroxydopamine lesion, counts for 3 hours after dosing
Experimental: 6-Hydroxydopamine Lesion Model In Vivo Rodent Parkinson's Disease Model
Adult female rats (10) were first assessed for pre-surgery motor activity using an automated activity tracking system that records beam breaks across the testing arena floor. Beam breaks were summed over the first 3 hours after the animals were placed into the arena and recorded as activity counts. To selectively damage dopaminergic nerve terminals in the striatum, 20 μg of the 6-hydroxydopamine was injected directly into the striatum bilaterally (i.e., on both sides of the brain). After 4 weeks of recovery, the rats were again tested for motor activity, and a significant reduction in activity counts was observed. Vehicle and the compound of Example 47 (0.5% methylcellulose) was orally dosed at 0.1, 1.0, or 10 mg/kg in a cross-over study design (5-10 day wash out period), and after dosing activity counts were measured for 3 hours. At the end of the study period, when each animal had received each treatment once, the data were analyzed. The activity counts (standard error of the mean) for the group pre-surgery and post-surgery and for treated and vehicle control were determined and are provide in Table 3 below: […]

`CC(=O)N1CCc2nc(N3CCC(Oc4ccc(F)cc4F)CC3)c(NC(C)C)nc2C1` [Example 47, 1-(2-(4-(2,4-difluorophenoxyl)piperidin-1-yl)-3-(isopropylamino)-7,8-dihydropyrido[3,4-b]pyrazin-6(5H)-yl)ethanone] was tested, and the “% reversal 30 min” value ([1]; 0.1 mpk i.p.) was −5.7%, the “% reversal 120 min” value ([1]; 0.1 mpk i.p.) was 27.3% and the “% reversal 30 min” value ([1]; 1 mpk i.p.) was 39.1%. For the same compound, the “% reversal 120 min” value ([1]; 1 mpk i.p.) was 57.9* %, the “% reversal 30 min” value ([1]; 10 mpk i.p.) was 83.4* % and the “% reversal 120 min” value ([1]; 10 mpk i.p.) was 76.5* %. The “% reversal 30 min” value ([1]; 30 mpk i.p.) was 75.7* %, the “% reversal 120 min” value ([1]; 30 mpk i.p.) was 82.1* % and the “activity counts, Mean” value ([2]; orally dosed 0.1 mg/kg) was 11422*. The “activity counts, Mean” value ([2]; orally dosed 1.0 mg/kg) was 15334* and the “activity counts, Mean” value ([2]; orally dosed 10 mg/kg) was 19368*.
